Experimental data reported in US20250223268A1, “4-Methylsulfonylbenzamide Compound, Preparation Method, Herbicidal Composition And Use” (Jiangsu Flag Chemical Industry Co., Ltd., priority 2022, published 2025).

Key:
Test in all cases: Greenhouse herbicidal activity assay, post-emergence
Assay type in all cases: in vivo
Cyperus iria = settings: Post-emergence test, rate 150 g a.i./hm^2, grade by fresh weight inhibition rate
Source text: (§1) Post-emergence: Seeds of gramineous weeds (Echinochloa crusgalli, Echinochloa crusgalli var. zelayensis, Echinochloa phyllopogon, Eleusine indica, Digitaria sanguinalis, Leptochloa chinensis, Setaria viridis, Alopecurus japonicus Steud, Beckmannia syzigachne, Polypogon fugax, Alopecurus aequalis, Lolium multiflorum, Poa annua, Aegilops tataschii, Avena fatua, Alopecurus myosuroides, Bromus japonicus), broadleaf weeds (Eclipta prostrata, Amaranthus retroflexus, Rorippa indica, Myosoton aquaticum, Veronica didyma, Galium aparine, Solanum nigrum, Xanthium sibiricum, Conyza canadensis, Sesbania cannabina, Sagittaria trifolia), and Cyperus iria (Cyperus iria, Scirpus juncoides, Cyperus difformis, etc.) were sown in plastic pots (7 cm diameter) with nutrient soil and bottom holes. Crop seeds (including Oryza sativa subsp. indica, Oryza sativa subsp. japonica, Oryza sativa L. var. Glutinosa matsum, Triticum aestivum, Zea mays, Sorghum bicolor, Setaria italica, Glycine max, Gossypium hirsutum, Brassica napus, Arachis hypogaea) were sown in plastic pots (10 cm diameter) with nutrient soil and bottom holes. After sowing, the pots were placed in the growth chamber until the plants reached the 3-6 leaf stage for foliar spraying. Post-treatment, the materials were air-dried naturally and returned to the growth chamber. Results were assessed 14-21 days later.
(§2) • A: Fresh weight inhibition rate≥80% to 100%; • B: Fresh weight inhibition rate[…] to <80%; • C: Fresh weight inhibition rate≥40% to <60%; • D: Fresh weight inhibition rate≥20% to <40%; • E: Fresh weight inhibition rate<20%; • NT: Not tested.

Digitaria sanguinalis = settings: Post-emergence test, rate 150 g a.i./hm^2, grade by fresh weight inhibition rate
Source text: as §1, §2

Echinochloa crusgalli = settings: Post-emergence test, rate 150 g a.i./hm^2; grade by fresh weight inhibition rate
Source text: as §1, §2

Eclipta prostrata = settings: Post-emergence test, rate 150 g a.i./hm^2, grade by fresh weight inhibition rate
Source text: as §1, §2

Leptochloa chinensis = settings: Post-emergence test, rate 150 g a.i./hm^2, grade by fresh weight inhibition rate
Source text: as §1, §2

Compound	Control efficacy grade, Cyperus iria (Cyperus iria)	Control efficacy grade, Digitaria sanguinalis (Digitaria sanguinalis)	Control efficacy grade, Echinochloa crusgalli (Echinochloa crusgalli)	Control efficacy grade, Eclipta prostrata (Eclipta prostrata)	Control efficacy grade, Leptochloa chinensis (Leptochloa chinensis)	pest or weed control at 150 g/ha (Cyperus iria; Cyperus iria, read-out: Control efficacy grade, Cyperus iria)	pest or weed control at 150 g/ha (Digitaria sanguinalis; Digitaria sanguinalis, read-out: Control efficacy grade, Digitaria sanguinalis)	pest or weed control at 150 g/ha (Eclipta prostrata; Eclipta prostrata, read-out: Control efficacy grade, Eclipta prostrata)	pest or weed control at 150 g/ha (Leptochloa chinensis; Dinebra chinensis, read-out: Control efficacy grade, Leptochloa chinensis)
CCc1nnc(NC(=O)c2ccc(S(C)(=O)=O)c([S+]([O-])C(C)CC)c2Cl)o1 (mixture of isomers) [Compound 3-401]	A (Fresh weight inhibition rate≥80% to 100%)	A (Fresh weight inhibition rate≥80% to 100%)	A (Fresh weight inhibition rate≥80% to 100%)	A (Fresh weight inhibition rate≥80% to 100%)	A (Fresh weight inhibition rate≥80% to 100%)				
Cc1nnc(NC(=O)c2ccc(S(C)(=O)=O)c([S+]([O-])CC#N)c2Cl)o1 (racemic) [Compound 3-193]	A (Fresh weight inhibition rate≥80% to 100%)	B (Fresh weight inhibition rate≥260% to <80%)	A (Fresh weight inhibition rate≥80% to 100%)	A (Fresh weight inhibition rate≥80% to 100%)	A (Fresh weight inhibition rate≥80% to 100%)				
CS(=O)(=O)c1ccc(C(=O)Nc2nnco2)c(Cl)c1SCC(F)F [Compound 3-328]	A (Fresh weight inhibition rate≥80% to 100%)	A (Fresh weight inhibition rate≥80% to 100%)	A (Fresh weight inhibition rate≥80% to 100%)	A (Fresh weight inhibition rate≥80% to 100%)	A (Fresh weight inhibition rate≥80% to 100%)				
Cc1nnc(NC(=O)c2ccc(S(C)(=O)=O)c(SCC(C)C)c2Cl)o1 [Compound 3-27]	A (Fresh weight inhibition rate≥80% to 100%)	A (Fresh weight inhibition rate≥80% to 100%)	A (Fresh weight inhibition rate≥80% to 100%)	A (Fresh weight inhibition rate≥80% to 100%)	A (Fresh weight inhibition rate≥80% to 100%)				
Cc1nnc(NC(=O)c2ccc(S(C)(=O)=O)c([S+]([O-])CC(C)C)c2Cl)o1 (racemic) [Compound 3-28]	A (Fresh weight inhibition rate≥80% to 100%)	A (Fresh weight inhibition rate≥80% to 100%)	A (Fresh weight inhibition rate≥80% to 100%)	A (Fresh weight inhibition rate≥80% to 100%)	A (Fresh weight inhibition rate≥80% to 100%)				
C=CCSc1c(S(C)(=O)=O)ccc(C(=O)Nc2nnc(CC)o2)c1Cl [Compound 3-454]	A (Fresh weight inhibition rate≥80% to 100%)	A (Fresh weight inhibition rate≥80% to 100%)	A (Fresh weight inhibition rate≥80% to 100%)		A (Fresh weight inhibition rate≥80% to 100%)				
CCCSc1c(S(C)(=O)=O)ccc(C(=O)Nc2nnc(C3CC3)o2)c1Cl [Compound 3-615]	A (Fresh weight inhibition rate≥80% to 100%)	A (Fresh weight inhibition rate≥80% to 100%)		A (Fresh weight inhibition rate≥80% to 100%)	A (Fresh weight inhibition rate≥80% to 100%)				
CCC(C)[S+]([O-])c1c(S(C)(=O)=O)ccc(C(=O)Nc2nnnn2C)c1Cl (mixture of isomers) [Compound 1-19]		A (Fresh weight inhibition rate≥80% to 100%)	A (Fresh weight inhibition rate≥80% to 100%)	A (Fresh weight inhibition rate≥80% to 100%)	A (Fresh weight inhibition rate≥80% to 100%)				
Cc1nonc1NC(=O)c1ccc(S(C)(=O)=O)c(S(=O)(=O)C(C)C)c1Cl [Compound 4-10]	A (Fresh weight inhibition rate≥80% to 100%)	B (Fresh weight inhibition rate≥260% to <80%)	A (Fresh weight inhibition rate≥80% to 100%)		A (Fresh weight inhibition rate≥80% to 100%)				
C=C(C)CS(=O)(=O)c1c(S(C)(=O)=O)ccc(C(=O)Nc2nnc(C)o2)c1Cl [Compound 3-146]	A (Fresh weight inhibition rate≥80% to 100%)	B (Fresh weight inhibition rate≥260% to <80%)		A (Fresh weight inhibition rate≥80% to 100%)	A (Fresh weight inhibition rate≥80% to 100%)				
CCc1nnc(NC(=O)c2ccc(S(C)(=O)=O)c(SCC(F)F)c2Cl)o1 [Compound 3-444]		B (Fresh weight inhibition rate≥260% to <80%)	A (Fresh weight inhibition rate≥80% to 100%)		A (Fresh weight inhibition rate≥80% to 100%)				
Cc1nnc(NC(=O)c2ccc(S(C)(=O)=O)c(SC(C)C#N)c2Cl)o1 (centres unmarked) [Compound 3-202]	B (Fresh weight inhibition rate≥260% to <80%)	B (Fresh weight inhibition rate≥260% to <80%)	A (Fresh weight inhibition rate≥80% to 100%)		A (Fresh weight inhibition rate≥80% to 100%)				
Cc1nonc1NC(=O)c1ccc(S(C)(=O)=O)c([S+]([O-])C(C)C)c1Cl (racemic) [Compound 4-7]		B (Fresh weight inhibition rate≥260% to <80%)	A (Fresh weight inhibition rate≥80% to 100%)	A (Fresh weight inhibition rate≥80% to 100%)	A (Fresh weight inhibition rate≥80% to 100%)				
Cc1nnc(NC(=O)c2ccc(S(C)(=O)=O)c([S+]([O-])CCCl)c2Cl)o1 (racemic) [Compound 3-213]	A (Fresh weight inhibition rate≥80% to 100%)	A (Fresh weight inhibition rate≥80% to 100%)	A (Fresh weight inhibition rate≥80% to 100%)		A (Fresh weight inhibition rate≥80% to 100%)				
Cn1ncnc1NC(=O)c1ccc(S(C)(=O)=O)c(SC2CC2)c1Cl [Compound 2-32]		A (Fresh weight inhibition rate≥80% to 100%)	A (Fresh weight inhibition rate≥80% to 100%)	A (Fresh weight inhibition rate≥80% to 100%)	A (Fresh weight inhibition rate≥80% to 100%)				
CS(=O)(=O)c1ccc(C(=O)Nc2nnc(C3CC3)o2)c(Cl)c1[S+]([O-])C1CCCC1 (racemic) [Compound 3-662]	A (Fresh weight inhibition rate≥80% to 100%)	A (Fresh weight inhibition rate≥80% to 100%)		A (Fresh weight inhibition rate≥80% to 100%)	A (Fresh weight inhibition rate≥80% to 100%)				
Cc1nnc(NC(=O)c2ccc(S(C)(=O)=O)c(SC(C)(C)C)c2Cl)o1 [Compound 3-32]	A (Fresh weight inhibition rate≥80% to 100%)	B (Fresh weight inhibition rate≥260% to <80%)	A (Fresh weight inhibition rate≥80% to 100%)		A (Fresh weight inhibition rate≥80% to 100%)				
CCCSc1c(S(C)(=O)=O)ccc(C(=O)Nc2nonc2C)c1Cl [Compound 4-1, 2-chloro-N-(4-methyl-1,2,5-oxadiazol-3-yl)-4-(methylsulfonyl)-3-(propylthio)benzamide]						80 to 100%	80 to 100%	80 to 100%	80 to 100%
CCC(C)S(=O)(=O)c1c(S(C)(=O)=O)ccc(C(=O)Nc2nonc2C)c1Cl (racemic) [Compound 4-24]	A (Fresh weight inhibition rate≥80% to 100%)	A (Fresh weight inhibition rate≥80% to 100%)		A (Fresh weight inhibition rate≥80% to 100%)	A (Fresh weight inhibition rate≥80% to 100%)				
